Literature values in PMC9603901, “Therapeutic Potential of Antimicrobial Peptide PN5 against Multidrug-Resistant E. coli and Anti-Inflammatory Activity in a Septic Mouse Model” (Microbiology Spectrum, 2022).
In brackets after ≈: the same amount, converted by molar mass.

What was measured:
Design in all cases: method as in Asan hospital; key to susceptibility category: S: susceptible; R: resistant; I: intermediate
MDR E. coli ASEC 1 = conditions: ref Asan hospital, cited from earlier work; for MIC: ASEC 1 (carbapenemase NDM-1), resistance information of clinical isolate; for susceptibility category: ASEC 1
MDR E. coli ASEC 2 = conditions: ref Asan hospital, cited from earlier work; for MIC: ASEC 2 (NDM-7), resistance information of clinical isolate; for susceptibility category: ASEC 2
MDR E. coli ASEC 3 = conditions: ref Asan hospital, cited from earlier work; for MIC: ASEC 3 (NDM-5), resistance information of clinical isolate; for susceptibility category: ASEC 3
MDR E. coli ASEC 4 = conditions: ref Asan hospital, cited from earlier work; for MIC: ASEC 4 (ESBL), resistance information of clinical isolate; for susceptibility category: ASEC 4
MDR E. coli ASEC 5 = conditions: ref Asan hospital, cited from earlier work; for MIC: ASEC 5 (ESBL), resistance information of clinical isolate; for susceptibility category: ASEC 5
MDR E. coli ASEC 6 = conditions: ref Asan hospital, cited from earlier work; for MIC: ASEC 6 (ESBL), resistance information of clinical isolate; for susceptibility category: ASEC 6
MDR E. coli ASEC 7 = conditions: ref Asan hospital, cited from earlier work; for MIC: ASEC 7 (ESBL), resistance information of clinical isolate; for susceptibility category: ASEC 7
MDR E. coli ASEC 8 = conditions: ref Asan hospital, cited from earlier work; for MIC: ASEC 8 (ESBL), resistance information of clinical isolate; for susceptibility category: ASEC 8
MDR E. coli ASEC 9 = conditions: ref Asan hospital, cited from earlier work; for MIC: ASEC 9 (ESBL), resistance information of clinical isolate; for susceptibility category: ASEC 9
MDR E. coli ASEC 10 = conditions: ref Asan hospital, cited from earlier work; for MIC: ASEC 10 (ESBL), resistance information of clinical isolate; for susceptibility category: ASEC 10
MDR E. coli ASEC 11 = conditions: ref Asan hospital, cited from earlier work; for MIC: ASEC 11 (ESBL), resistance information of clinical isolate; for susceptibility category: ASEC 11
MDR E. coli ASEC 12 = conditions: ref Asan hospital, cited from earlier work; for MIC: ASEC 12 (AmpC), resistance information of clinical isolate; for susceptibility category: ASEC 12
MDR E. coli ASEC 13 = conditions: ref Asan hospital, cited from earlier work; for MIC: ASEC 13 (AmpC), resistance information of clinical isolate; for susceptibility category: ASEC 13
MDR E. coli ASEC 14 = conditions: ref Asan hospital, cited from earlier work; for MIC: ASEC 14 (AmpC), resistance information of clinical isolate; for susceptibility category: ASEC 14
MDR E. coli ASEC 15 = conditions: ref Asan hospital, cited from earlier work; for MIC: ASEC 15 (AmpC), resistance information of clinical isolate; for susceptibility category: ASEC 15
MDR E. coli ASEC 16 = conditions: ref Asan hospital, cited from earlier work; for MIC: ASEC 16 (AmpC), resistance information of clinical isolate; for susceptibility category: ASEC 16
MDR E. coli ASEC 17 = conditions: ref Asan hospital, cited from earlier work; for MIC: ASEC 17 (AmpC), resistance information of clinical isolate; for susceptibility category: ASEC 17
MDR E. coli ASEC 18 = conditions: ref Asan hospital, cited from earlier work; for MIC: ASEC 18 (AmpC), resistance information of clinical isolate; for susceptibility category: ASEC 18
MDR E. coli ASEC 19 = conditions: ref Asan hospital, cited from earlier work; for MIC: ASEC 19 (AmpC), resistance information of clinical isolate; for susceptibility category: ASEC 19

## C[C@@H](O)[C@H]1C(=O)N2C(C(=O)O)=C(SCCN=CN)C[C@H]12 [Imipenem]
MDR E. coli ASEC 1
  MIC: <= 4 μg mL-1
  susceptibility category: R
MDR E. coli ASEC 2
  MIC: 8 µg/mL (≈ 26.7 µM)
  susceptibility category: R
MDR E. coli ASEC 3
  MIC: > 8 µg/mL
  susceptibility category: R
MDR E. coli ASEC 4
  MIC: > 8 µg/mL
  susceptibility category: R
MDR E. coli ASEC 5
  MIC: > 8 µg/mL
  susceptibility category: R
MDR E. coli ASEC 6
  MIC: > 8 µg/mL
  susceptibility category: R
MDR E. coli ASEC 7
  MIC: <= 1 μg mL-1
  susceptibility category: S
MDR E. coli ASEC 8
  MIC: <= 1 μg mL-1
  susceptibility category: S
MDR E. coli ASEC 9
  MIC: <= 1 μg mL-1
  susceptibility category: S
MDR E. coli ASEC 10
  MIC: <= 1 μg mL-1
  susceptibility category: S
MDR E. coli ASEC 11
  MIC: <= 1 μg mL-1
  susceptibility category: S
MDR E. coli ASEC 12
  MIC: > 8 µg/mL
  susceptibility category: R
MDR E. coli ASEC 13
  MIC: > 8 µg/mL
  susceptibility category: R
MDR E. coli ASEC 14
  MIC: 8 µg/mL (≈ 26.7 µM)
  susceptibility category: R
MDR E. coli ASEC 15
  MIC: <= 1 μg mL-1
  susceptibility category: S
MDR E. coli ASEC 16
  MIC: <= 1 μg mL-1
  susceptibility category: S
MDR E. coli ASEC 17
  MIC: <= 1 μg mL-1
  susceptibility category: S
MDR E. coli ASEC 18
  MIC: <= 1 μg mL-1
  susceptibility category: S
MDR E. coli ASEC 19
  MIC: <= 1 μg mL-1
  susceptibility category: S

## CO[C@@]1(NC(=O)Cc2cccs2)C(=O)N2C(C(=O)O)=C(COC(N)=O)CS[C@@H]21 [Cefoxitin]
MDR E. coli ASEC 1
  MIC: > 16 µg/mL
  susceptibility category: R
MDR E. coli ASEC 2
  MIC: > 16 µg/mL
  susceptibility category: R
MDR E. coli ASEC 3
  MIC: > 16 µg/mL
  susceptibility category: R
MDR E. coli ASEC 4
  MIC: > 16 µg/mL
  susceptibility category: R
MDR E. coli ASEC 5
  MIC: > 16 µg/mL
  susceptibility category: R
MDR E. coli ASEC 6
  MIC: > 16 µg/mL
  susceptibility category: R
MDR E. coli ASEC 7
  MIC: <= 8 μg mL-1
  susceptibility category: S
MDR E. coli ASEC 8
  MIC: <= 8 μg mL-1
  susceptibility category: S
MDR E. coli ASEC 9
  MIC: 16 µg/mL (≈ 37.4 µM)
  susceptibility category: I
MDR E. coli ASEC 10
  MIC: <= 8 μg mL-1
  susceptibility category: S
MDR E. coli ASEC 11
  MIC: <= 8 μg mL-1
  susceptibility category: S
MDR E. coli ASEC 12
  MIC: > 16 µg/mL
  susceptibility category: R
MDR E. coli ASEC 13
  MIC: > 16 µg/mL
  susceptibility category: R
MDR E. coli ASEC 14
  MIC: > 16 µg/mL
  susceptibility category: R
MDR E. coli ASEC 15
  MIC: > 16 µg/mL
  susceptibility category: R
MDR E. coli ASEC 16
  MIC: > 16 µg/mL
  susceptibility category: R
MDR E. coli ASEC 17
  MIC: > 16 µg/mL
  susceptibility category: R
MDR E. coli ASEC 18
  MIC: > 16 µg/mL
  susceptibility category: R
MDR E. coli ASEC 19
  MIC: > 16 µg/mL
  susceptibility category: R

## CO/N=C(\C(=O)N[C@@H]1C(=O)N2C(C(=O)O)=C(CSc3nc(=O)c(=O)[nH]n3C)CS[C@H]12)c1csc(N)n1 [Ceftriaxone]
MDR E. coli ASEC 1
  MIC: > 32 µg/mL
  susceptibility category: R
MDR E. coli ASEC 4
  MIC: > 32 µg/mL
  susceptibility category: R
MDR E. coli ASEC 5
  MIC: > 32 µg/mL
  susceptibility category: R
MDR E. coli ASEC 6
  MIC: > 32 µg/mL
  susceptibility category: R
MDR E. coli ASEC 12
  MIC: > 32 µg/mL
  susceptibility category: R
MDR E. coli ASEC 13
  MIC: > 32 µg/mL
  susceptibility category: R
